Calls of active or inactive are those of the source. No rule for the calls is given here.
What follows are compounds tested on P. yoelii liver stage in HepG2-A16-CD81EGFP, imaging (assay: exo-erythrocytic parasite development inhibition – imaging, Malaria Box, P. yoelii, HepG2-A16-CD81EGFP, dose response (AID 602156);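 also: infected cells exposed to compound for 48 hours before fixation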).

**Q.** Which IC50 does the source give for `Cc1ccccc1N=Nc1ccc(NC(=O)c2ccco2)c(C)c1` here?
**A.** 300 nM

**Q.** How did the IC50 turn out when `Oc1cccc2ccc[n+](CC(O)Cn3c4ccccc4c4ccccc43)c12` (stereo not drawn) was run?
**A.** 311 nM

**Q.** With `CC1(C)N=C(N)N=C(N)N1c1ccc(I)cc1` as the compound, how does the IC50 read?
**A.** 10 nM

**Q.** `COC(OC)C(C)=NNC(N)=S` was tested. Which IC50 did it give?
**A.** 4.93 nM

**Q.** Which IC50 does the source give for `CN(C)c1ccc(C(C=C2C=C(c3ccccc3)C=C(c3ccccc3)O2)=C2C=CC(=[N+](C)C)C=C2)cc1` here?
**A.** 51.9 nM

**Q.** With `Cc1ccc(Nc2nc(NCc3ccccc3)c3ccccc3n2)cc1` as the compound, how does the IC50 read?
**A.** 278 nM

**Q.** Which IC50 does the source give for `Cc1nc2ccc(NC(=O)C3CC3)cc2c(=O)n1Cc1ccc(Cl)cc1` here?
**A.** > 10000 nM (inactive)

**Q.** `Cc1ccc(Nc2cc(C)nc(NCc3ccccc3)n2)c(C)c1` was tested. Which IC50 did it give?
**A.** 1300 nM

**Q.** Which IC50 does the source give for `Clc1ncnc2ncn(Cc3ccccc3)c12` here?
**A.** > 10000 nM (inactive)

**Q.** Which IC50 does the source give for `CC(C)c1nc(N2CCN(C(=O)Nc3ccccc3)CC2)c(C#N)c2c1COC(C)(C)C2` here?
**A.** 1020 nM

**Q.** `CCOC(=O)c1ccc(NCc2c(C)[nH]c3ccccc3c2=O)cc1` was tested. Which IC50 did it give?
**A.** 137 nM

**Q.** Which IC50 does the source give for `CCN(CC)CCN(Cc1cc2ccc(C)cc2[nH]c1=O)C(=S)NC(C)c1ccccc1` (stereo not drawn) here?
**A.** 883 nM

**Q.** Which IC50 does the source give for `C/C=C/[P+](c1ccccc1)(c1ccccc1)c1ccccc1` here?
**A.** 49.4 nM

**Q.** For `CCOC(=O)C1=C(c2ccccc2)N=c2sc(=Cc3cc(C)n(-c4ccc(F)cc4)c3C)c(=O)n2C1c1cccc(OC)c1OC` (stereo not drawn), which IC50 is on record?
**A.** 2450 nM

**Q.** `COc1ccc2nc(SCC(=O)Nc3cccc(NC(=O)CSc4nc5ccc(OC)cc5[nH]4)n3)[nH]c2c1` was tested. Which IC50 did it give?
**A.** > 9290 nM (inactive)

**Q.** Which IC50 does the source give for `COc1ccc(C2CC(=O)C3=C(C2)NC(C)=C(C(=O)OC2CCCC2)C3c2ccc([N+](=O)[O-])cc2)cc1OC` (stereo not drawn) here?
**A.** 3920 nM

**Q.** Which IC50 does the source give for `CC(C)CC(N)C(=O)N1CCn2c(nc(-c3ccccc3)c2Nc2ccc3c(c2)OCO3)C1` (stereo not drawn) here?
**A.** 186 nM

**Q.** How did the IC50 turn out when `CCCN[P+](CC(C)C)(NCCC)NCCC` was run?
**A.** 281 nM

**Q.** With `O=C(O)c1c[nH]c2cc(N3CCCCCC3)c(F)cc2c1=O` as the compound, how does the IC50 read?
**A.** > 10000 nM (inactive)

**Q.** With `CC(=O)N1c2ccc(C)cc2C(C)(c2ccccc2)CC1(C)C` (stereo not drawn) as the compound, how does the IC50 read?
**A.** 1250 nM

**Q.** With `COc1ccc2sc(Nc3nc(-c4ccccn4)cs3)nc2c1` as the compound, how does the IC50 read?
**A.** 159 nM

**Q.** `O=C(c1cnsn1)N1CCCC(COc2cccc(CN3CCC(Cc4ccccc4)CC3)c2)C1` (stereo not drawn) was tested. Which IC50 did it give?
**A.** 609 nM

**Q.** Which IC50 does the source give for `COc1cc(C(=O)Nc2ccc3nc4n(c(=O)c3c2)CCCCC4)cc(OC)c1OC` here?
**A.** > 10000 nM (inactive)

**Q.** With `CCc1c(C#N)c(N)nc(SCC(=O)c2ccc(C)cc2)c1C#N` as the compound, how does the IC50 read?
**A.** > 10000 nM (inactive)

**Q.** For `O=C(c1ccc2nc(N3CCCCC3)sc2c1)N1CCN(Cc2ccc3c(c2)OCO3)CC1`, which IC50 is on record?
**A.** > 9220 nM (inactive)

**Q.** Which IC50 does the source give for `Cn1cnnc1SCC(=O)Nc1ccccc1C(F)(F)F` here?
**A.** > 10000 nM (inactive)

**Q.** `CCN1C(=O)N(CC)C(NNC(N)=S)C1NNC(N)=S` (stereo not drawn) was tested. Which IC50 did it give?
**A.** 68.6 nM

**Q.** How did the IC50 turn out when `Cc1nc2cc(-c3ccc(I)cc3)[nH]n2c(=O)c1C` was run?
**A.** 119 nM

**Q.** With `COC(=O)c1cc(NC(=S)NC(=O)c2c(OC)cccc2OC)cc(C(=O)OC)c1` as the compound, how does the IC50 read?
**A.** > 10000 nM (inactive)

**Q.** How did the IC50 turn out when `CC(Oc1ccc(Cl)cc1Cl)c1nc(-c2ccc(NC(=O)c3cccs3)cc2)no1` (stereo not drawn) was run?
**A.** 114 nM

**Q.** Which IC50 does the source give for `CC1(C)N=C(N)N=C(N)N1c1ccc(F)cc1` here?
**A.** 18.9 nM

**Q.** How did the IC50 turn out when `C[C@@H]1C[C@@H]([C@H](O)CC2CC(=O)NC(=O)C2)C(=O)[C@@H](C)C1` was run?
**A.** 78.1 nM

**Q.** For `CCN(CC)c1ccc(N=Cc2ccc(Sc3nc4ccccc4s3)o2)cc1`, which IC50 is on record?
**A.** > 10000 nM (inactive)

**Q.** How did the IC50 turn out when `CN(C)c1cc[n+](CC(=O)Nc2ccc(Cl)cc2)cc1` was run?
**A.** 584 nM

**Q.** Which IC50 does the source give for `Cn1ncnc2c(=O)n(C)c(=O)nc1-2` here?
**A.** 103 nM

**Q.** `CCOC(=O)C1(CC)CC(C)(C(=O)C[n+]2cccc(Br)c2)OC1=O` (stereo not drawn) was tested. Which IC50 did it give?
**A.** > 10000 nM (inactive)

**Q.** How did the IC50 turn out when `CC(=O)Nc1nc(C)c(-c2csc(Nc3ccc(C)cc3)n2)s1` was run?
**A.** 1890 nM

**Q.** `COc1ccc(CN2CCOc3ccc(C(C)(O)CN(C)C)cc3C2)cc1C` (stereo not drawn) was tested. Which IC50 did it give?
**A.** 67.5 nM

**Q.** Which IC50 does the source give for `Cc1cc(NC(c2cccc(Br)c2)c2ccc3cccnc3c2O)no1` (stereo not drawn) here?
**A.** 147 nM

**Q.** For `Cc1[nH]c2ccc(Br)cc2c(=O)c1CC(C)C`, which IC50 is on record?
**A.** 244 nM

**Q.** Which IC50 does the source give for `CC[n+]1c(C=C2C=C(C)OC(C)=C2)sc2ccccc21` here?
**A.** 245 nM

**Q.** For `O=[N+]([O-])c1ccc(N2CCCN(C(=S)Nc3ccc(F)cc3Br)CC2)nc1`, which IC50 is on record?
**A.** 4620 nM

**Q.** `Cc1cccc(C(=O)NCc2n[nH]c(=S)n2-c2cccc(C(F)(F)F)c2)c1` was tested. Which IC50 did it give?
**A.** > 10000 nM (inactive)
